The values below come from paper PMC6035175, “Ternary complex of Kif2A-bound tandem tubulin heterodimers represents a kinesin-13-mediated microtubule depolymerization reaction intermediate” (Nature Communications, 2018).

One assay has as its target T1, Kif2A-MD (Homo sapiens, UniProt O00139).
T1 construct: motor domain without most of the neck, residues 203-554, pGex-6P1, PreScission-cleaved GST fusion; 1:1 complex with tubulin; with Tubulin alpha chain (Bos taurus, brain); Tubulin beta chain (Bos taurus, brain)
Put plainly: malachite green phosphate release ATPase assay. Type of assay: biochemical. Conditions: tubulin- or microtubule-stimulated; BRB80-based buffer pH 6.8, 1 mM MgCl2, 75 mM KCl; without DARPin.

The next assay has as its target T2, Kif2A-NM (Homo sapiens, UniProt O00139).
T2 construct: neck plus motor domain, residues 153-553, monomer, 48 kDa, His-tagged, from E. coli BL21(DE3) pLysS; studied with bovine brain tubulin (1:2 complex), crystal also holds DARPin D1; full length 706 residues; with Tubulin alpha chain (Bos taurus, brain); Tubulin beta chain (Bos taurus, brain)
The assay is described as follows: malachite green phosphate release ATPase assay. It counts as biochemical. Conditions: tubulin- or microtubule-stimulated; BRB80-based buffer pH 6.8, 1 mM MgCl2, 75 mM KCl; without DARPin.

The target of assay [1] is αβ-tubulin heterodimer from bovine brain (bovine) (UniProt Q6B856). The assay is described as follows: not stated; Kif2A-MD with tubulin, shown in Supplementary Figure 6; method not given.
Assay [2] has the same target. Put plainly: SEC-SAXS; in-line Superdex 200 10/300 GL, 20 mM HEPES, 150 mM NaCl, 1 mM MgCl2, pH 7.2; 25 μM tubulin, 27 μM DARPin, 20 μM Kif2A-NM, 0.1 mM AMPPNP; 270 kDa peak; 22 °C.

Chain of Kif2A-NM (human Kif2A neck plus motor domain, residues 153–553) (O00139 153-553): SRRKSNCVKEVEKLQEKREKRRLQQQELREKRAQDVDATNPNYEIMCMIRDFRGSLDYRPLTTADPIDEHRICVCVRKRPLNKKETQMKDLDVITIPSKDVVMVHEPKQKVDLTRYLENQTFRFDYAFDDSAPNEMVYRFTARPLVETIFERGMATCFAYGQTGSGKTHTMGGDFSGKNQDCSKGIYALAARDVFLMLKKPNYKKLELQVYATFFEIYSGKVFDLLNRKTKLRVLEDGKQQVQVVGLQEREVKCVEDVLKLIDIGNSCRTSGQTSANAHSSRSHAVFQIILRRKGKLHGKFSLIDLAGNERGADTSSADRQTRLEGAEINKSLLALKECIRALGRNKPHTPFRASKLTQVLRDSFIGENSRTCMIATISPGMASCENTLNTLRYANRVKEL
T2 sequence (O00139 153-553): as above
T2 sequence (P81947 whole entry partner, the tested form may be a part): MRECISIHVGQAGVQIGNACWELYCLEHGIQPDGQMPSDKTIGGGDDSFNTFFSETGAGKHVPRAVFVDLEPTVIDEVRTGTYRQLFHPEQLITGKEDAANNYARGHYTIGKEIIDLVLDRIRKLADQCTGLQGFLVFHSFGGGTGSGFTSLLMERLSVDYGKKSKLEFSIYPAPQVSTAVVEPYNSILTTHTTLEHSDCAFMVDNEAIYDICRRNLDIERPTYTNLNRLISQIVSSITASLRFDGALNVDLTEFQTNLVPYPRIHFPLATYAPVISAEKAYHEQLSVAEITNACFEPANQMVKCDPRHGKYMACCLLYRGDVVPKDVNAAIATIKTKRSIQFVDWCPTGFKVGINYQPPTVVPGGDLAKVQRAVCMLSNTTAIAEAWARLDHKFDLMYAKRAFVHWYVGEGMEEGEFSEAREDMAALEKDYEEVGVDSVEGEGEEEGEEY
T2 sequence (Q6B856 whole entry partner, the tested form may be a part): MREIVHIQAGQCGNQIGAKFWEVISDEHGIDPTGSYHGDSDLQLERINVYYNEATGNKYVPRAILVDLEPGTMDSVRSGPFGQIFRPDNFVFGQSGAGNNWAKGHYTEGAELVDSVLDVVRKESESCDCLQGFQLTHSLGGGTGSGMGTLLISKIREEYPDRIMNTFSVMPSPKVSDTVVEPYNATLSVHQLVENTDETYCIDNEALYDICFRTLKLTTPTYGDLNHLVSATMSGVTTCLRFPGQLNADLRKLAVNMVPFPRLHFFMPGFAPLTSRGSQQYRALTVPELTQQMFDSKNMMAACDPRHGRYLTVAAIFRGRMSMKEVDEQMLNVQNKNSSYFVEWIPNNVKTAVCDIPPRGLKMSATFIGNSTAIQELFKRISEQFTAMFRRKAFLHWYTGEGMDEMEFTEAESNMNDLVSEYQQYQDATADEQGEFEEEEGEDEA
T1 sequence (O00139 203-554): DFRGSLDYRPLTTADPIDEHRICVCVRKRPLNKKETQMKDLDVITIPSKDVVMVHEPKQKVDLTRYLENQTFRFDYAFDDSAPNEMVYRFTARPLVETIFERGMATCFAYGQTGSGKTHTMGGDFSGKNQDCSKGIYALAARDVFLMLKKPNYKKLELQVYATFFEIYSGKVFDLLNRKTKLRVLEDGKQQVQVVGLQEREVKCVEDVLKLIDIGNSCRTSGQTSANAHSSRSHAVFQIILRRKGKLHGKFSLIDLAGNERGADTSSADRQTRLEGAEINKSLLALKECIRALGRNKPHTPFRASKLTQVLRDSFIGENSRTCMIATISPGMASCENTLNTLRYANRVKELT
T1 sequence (P81947 whole entry partner, the tested form may be a part): as the sequence (P81947 whole entry partner, the tested form may be a part) above
T1 sequence (Q6B856 whole entry partner, the tested form may be a part): as the sequence (Q6B856 whole entry partner, the tested form may be a part) above
Chain of Kif2A-MD (human Kif2A motor domain without the neck, residues 203–554) (O00139 203-554): as the sequence (O00139 203-554) above

Turning to `Nc1ncnc2c1ncn2[C@@H]1O[C@H](COP(=O)(O)OP(=O)(O)OP(=O)(O)O)[C@@H](O)[C@H]1O` [ATP], the ATP turnover rate entry was “ATP turnover rates of Kif2A-NM (orange) and Kif2A-MD (gray) in the presence of tubulin” at Kif2A-MD; “ATP turnover rates of Kif2A-NM (orange) and Kif2A-MD (gray) in the presence of tubulin” on Kif2A-NM.
Compound “Kif2A-MD (human Kif2A motor domain without the neck, residues 203–554) (from UniProt O00139 203-554) (domain or fragment)” displayed a stoichiometry N (Kif2A-MD per tubulin dimer (1:1)) in assay [1] of 1.
With “Kif2A-NM (human Kif2A neck plus motor domain, residues 153–553) (from UniProt O00139 153-553) (domain or fragment)”, in assay [2], the stoichiometry N (αβ-tubulin dimers per Kif2A-NM) worked out at 2.
